Here are results for 8 cell lines from the supplement of paper PMC10307832.

What all share (experiment): relative viability (nuclei count vs DMSO), 5 days (fraction); higher = more cells survive
Compound in assay [1]: CN(NC(=O)CC(=O)NN(C)C(=S)c1ccccc1)C(=S)c1ccccc1 [Elesclomol] + CC(=O)c1c(C)c2cnc(Nc3ccc(N4CCNCC4)cn3)nc2n(C2CCCC2)c1=O [Palbociclib] (partner 0.5 µM)
The gist of the method: (§1)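 Lung cancer cell lines were seeded in 1536-well plates and dosed by pin tool the next day, with either a single drug or a fixed anchor-drug dose combined with five library-drug doses (not always all listed) spaced in √10 steps. Five days later, one step fixed the cells and stained their nuclei (final 0.05% Triton X-100, 1% formaldehyde, 1 ug/ml Hoechst), and nuclei were counted on 4× images. Relative viability is the nuclei count in treated wells divided by the count in vehicle wells, and each value is the median of duplicate plates.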

Compound in assay [2]: CN(NC(=O)CC(=O)NN(C)C(=S)c1ccccc1)C(=S)c1ccccc1 [Elesclomol] + CCNC(=O)c1noc(-c2cc(C(C)C)c(O)cc2O)c1-c1ccc(CN2CCOCC2)cc1 [Luminespib] (partner 0.01 µM)
The gist of the method: as §1

Compound in assay [3]: CN(NC(=O)CC(=O)NN(C)C(=S)c1ccccc1)C(=S)c1ccccc1 [Elesclomol] + C[C@]1(O)C[C@@H](c2nc(-c3ccc4ccc(-c5ccccc5)nc4c3)c3c(N)nccn32)C1 [Linsitinib] (partner 1 µM)
The gist of the method:
as §1

Compound in assay [4]: CN(NC(=O)CC(=O)NN(C)C(=S)c1ccccc1)C(=S)c1ccccc1 [Elesclomol] + NC(=O)Nc1cc(-c2cccc(F)c2)sc1C(=O)N[C@H]1CCCNC1 [AZD7762] (partner 0.2 µM)
The gist of the method: as §1

Compound in assay [5]: CN(NC(=O)CC(=O)NN(C)C(=S)c1ccccc1)C(=S)c1ccccc1 [Elesclomol] + O=C(c1cc(Cc2n[nH]c(=O)c3ccccc23)ccc1F)N1CCN(C(=O)C2CC2)CC1 [Olaparib] (partner 8 µM)
The gist of the method:
as §1

With EMC-BAC-2, the relative viability in assay [1] (first compound 0.003162 µM) is 0.514; in assay [1] (first compound 0.01 µM) it was 0.369; in assay [1] (first compound 0.03162 µM), 0.455; in assay [1] (first compound 0.1 µM), 0.352; in assay [2] (first compound 0.003162 µM) it was 1.23; in assay [2] (first compound 0.01 µM), 1.04. The relative viability was 0.535 in assay [2] (first compound 0.03162 µM); 0.383 in assay [2] (first compound 0.1 µM); 0.851 in assay [3] (first compound 0.003162 µM); 0.807 in assay [3] (first compound 0.01 µM); 0.699 in assay [3] (first compound 0.03162 µM); 0.455 in assay [3] (first compound 0.1 µM). The relative viability in assay [4] (first compound 0.003162 µM) is 1.2; in assay [4] (first compound 0.01 µM), 0.775; in assay [4] (first compound 0.03162 µM) it was 0.831; in assay [4] (first compound 0.1 µM), 0.684; in assay [5] (first compound 0.003162 µM), 0.445; in assay [5] (first compound 0.01 µM), 0.345. For the same cell line, the figures for the relative viability in assay [5] (first compound 0.03162 µM) and in assay [5] (first compound 0.1 µM) were 0.381 and 0.288, respectively.

Consider EPLC-272H, for which the relative viability in assay [1] (first compound 0.003162 µM) was found to be 0.352; in assay [1] (first compound 0.01 µM) it was 0.117; in assay [1] (first compound 0.03162 µM), 0.118; in assay [1] (first compound 0.1 µM) it was 0.112; in assay [2] (first compound 0.003162 µM) it was 0.333; in assay [2] (first compound 0.03162 µM), 0.576. The relative viability in assay [2] (first compound 0.1 µM) worked out at 0.125; in assay [3] (first compound 0.003162 µM), 1.25; in assay [3] (first compound 0.03162 µM), 1.05; in assay [3] (first compound 0.1 µM), 0.26; in assay [4] (first compound 0.003162 µM) it was 0.255; in assay [4] (first compound 0.01 µM), 0.159. Moreover, the relative viability amounted to 0.11 in assay [4] (first compound 0.03162 µM); 0.104 in assay [4] (first compound 0.1 µM); 0.592 in assay [5] (first compound 0.003162 µM); 0.157 in assay [5] (first compound 0.01 µM); 0.132 in assay [5] (first compound 0.03162 µM); 0.178 in assay [5] (first compound 0.1 µM).

With H3255, the relative viability in assay [1] (first compound 0.003162 µM) turned out to be 0.331; in assay [1] (first compound 0.01 µM) it was 0.309; in assay [1] (first compound 0.03162 µM) it was 0.285; in assay [1] (first compound 0.1 µM), 0.254; in assay [2] (first compound 0.003162 µM), 0.883; in assay [2] (first compound 0.01 µM), 0.875. Also, the relative viability in assay [2] (first compound 0.03162 µM) was 0.547; in assay [2] (first compound 0.1 µM), 0.395; in assay [3] (first compound 0.003162 µM) it was 1.01; in assay [3] (first compound 0.01 µM), 0.702; in assay [3] (first compound 0.03162 µM), 0.428; in assay [3] (first compound 0.1 µM), 0.432. Moreover, the relative viability in assay [4] (first compound 0.003162 µM) was determined as 0.818; in assay [4] (first compound 0.01 µM), 0.773; in assay [4] (first compound 0.03162 µM), 0.584; in assay [4] (first compound 0.1 µM), 0.521; in assay [5] (first compound 0.003162 µM), 0.488; in assay [5] (first compound 0.01 µM), 0.456. Further, the relative viability in assay [5] (first compound 0.03162 µM) turned out to be 0.482; in assay [5] (first compound 0.1 µM), 0.316.

In the case of HARA, the relative viability in assay [1] (first compound 0.003162 µM) was found to be 0.239; in assay [1] (first compound 0.01 µM), 0.278; in assay [1] (first compound 0.03162 µM) it was 0.284; in assay [1] (first compound 0.1 µM) it was 0.233; in assay [2] (first compound 0.003162 µM) it was 0.545; in assay [2] (first compound 0.01 µM), 0.669. In addition, the relative viability in assay [2] (first compound 0.03162 µM) was 0.1; in assay [2] (first compound 0.1 µM) it was 0.0826; in assay [3] (first compound 0.003162 µM), 1.11; in assay [3] (first compound 0.01 µM), 0.927; in assay [3] (first compound 0.03162 µM) it was 0.872; in assay [3] (first compound 0.1 µM) it was 0.21. For the same cell line, the relative viability in assay [4] (first compound 0.003162 µM) worked out at 0.348; in assay [4] (first compound 0.01 µM) it was 0.288; in assay [4] (first compound 0.03162 µM), 0.302; in assay [4] (first compound 0.1 µM), 0.227; in assay [5] (first compound 0.003162 µM), 0.774; in assay [5] (first compound 0.01 µM), 0.524. For the same cell line, the relative viability worked out at 0.417 in assay [5] (first compound 0.03162 µM) and 0.36 in assay [5] (first compound 0.1 µM).

With HCC-15, the relative viability in assay [1] (first compound 0.003162 µM) is 0.714; in assay [1] (first compound 0.01 µM), 0.629; in assay [1] (first compound 0.03162 µM), 0.518; in assay [1] (first compound 0.1 µM), 0.12; in assay [2] (first compound 0.003162 µM) it was 0.27; in assay [2] (first compound 0.01 µM), 0.194. Besides, the relative viability in assay [2] (first compound 0.03162 µM) is 0.11; in assay [2] (first compound 0.1 µM), 0.0457; in assay [3] (first compound 0.003162 µM), 0.882; in assay [3] (first compound 0.01 µM) it was 0.735; in assay [3] (first compound 0.03162 µM), 0.61; in assay [3] (first compound 0.1 µM), 0.38. For the same cell line, the relative viability in assay [4] (first compound 0.003162 µM) was 1.15; in assay [4] (first compound 0.01 µM) it was 1.3; in assay [4] (first compound 0.03162 µM) it was 1.13; in assay [4] (first compound 0.1 µM) it was 0.632; in assay [5] (first compound 0.003162 µM) it was 0.646; in assay [5] (first compound 0.01 µM), 0.631. In addition, the relative viability turned out to be 0.536 in assay [5] (first compound 0.03162 µM) and 0.217 in assay [5] (first compound 0.1 µM).

On to HCC-44, for which the relative viability came to 0.975 in assay [1] (first compound 0.003162 µM); 0.895 in assay [1] (first compound 0.01 µM); 0.939 in assay [1] (first compound 0.03162 µM); 0.952 in assay [1] (first compound 0.1 µM); 1.01 in assay [2] (first compound 0.003162 µM); 0.86 in assay [2] (first compound 0.01 µM). Also, the relative viability in assay [2] (first compound 0.03162 µM) worked out at 0.213; in assay [2] (first compound 0.1 µM), 0.178; in assay [3] (first compound 0.003162 µM) it was 0.678; in assay [3] (first compound 0.01 µM), 0.604; in assay [3] (first compound 0.03162 µM), 0.623; in assay [3] (first compound 0.1 µM), 0.345. Further, the relative viability in assay [4] (first compound 0.003162 µM) was determined as 1; in assay [4] (first compound 0.01 µM) it was 0.942; in assay [4] (first compound 0.03162 µM), 0.996; in assay [4] (first compound 0.1 µM) it was 1; in assay [5] (first compound 0.003162 µM), 0.965; in assay [5] (first compound 0.01 µM) it was 0.914. The figures for the relative viability in assay [5] (first compound 0.03162 µM) and in assay [5] (first compound 0.1 µM) were 0.976 and 1, respectively.

Turning to HCC-78, the relative viability in assay [1] (first compound 0.003162 µM) worked out at 0.493; in assay [1] (first compound 0.01 µM), 0.377; in assay [1] (first compound 0.03162 µM), 0.489; in assay [1] (first compound 0.1 µM), 0.466; in assay [3] (first compound 0.003162 µM), 0.425; in assay [3] (first compound 0.01 µM), 0.521. Besides, the relative viability is 0.497 in assay [3] (first compound 0.03162 µM); 0.408 in assay [3] (first compound 0.1 µM); 0.672 in assay [4] (first compound 0.003162 µM); 0.696 in assay [4] (first compound 0.01 µM); 0.513 in assay [4] (first compound 0.03162 µM); 0.642 in assay [4] (first compound 0.1 µM). Also, the relative viability was 0.735 in assay [5] (first compound 0.003162 µM), 0.574 in assay [5] (first compound 0.01 µM), 0.641 in assay [5] (first compound 0.03162 µM) and 0.945 in assay [5] (first compound 0.1 µM).

HCC-366: the relative viability in assay [1] (first compound 0.003162 µM) is 0.393; in assay [1] (first compound 0.01 µM), 0.393; in assay [1] (first compound 0.03162 µM), 0.0812; in assay [1] (first compound 0.1 µM), 0.0176; in assay [3] (first compound 0.003162 µM), 0.689; in assay [3] (first compound 0.01 µM) it was 0.663. The relative viability was 0.622 in assay [3] (first compound 0.03162 µM); 0.0082 in assay [3] (first compound 0.1 µM); 0.312 in assay [4] (first compound 0.003162 µM); 0.255 in assay [4] (first compound 0.01 µM); 0.393 in assay [4] (first compound 0.03162 µM); 0.0195 in assay [4] (first compound 0.1 µM). Besides, the relative viability turned out to be 0.369 in assay [5] (first compound 0.003162 µM), 0.31 in assay [5] (first compound 0.01 µM), 0.108 in assay [5] (first compound 0.03162 µM) and 0.0162 in assay [5] (first compound 0.1 µM).
